From ChEMBL document CHEMBL5505994, “Nur77 increases mitophagy and decreases aggregation of α-synuclein by modulating the p-c-Abl/p-PHB2 Y121 in α-synuclein PFF SH-SY5Y cells and mice” (Eur J Med Chem, 2024)
Active and inactive are the calls of the source.

Tests used:
SH-SY5Y [1] = assay: Agonist activity at Nur77 in alpha-synuclein preformed fibril-induced human SH-SY5Y cells assessed as reduction in alpha-synuclein aggregation at 1 uM treated for 24 hrs by Western blot analysis; assay type: cell-based; conditions: filed as agonist
SH-SY5Y [2] = assay: Agonist activity at Nur77-c-Abl-PHB2 pathway in alpha-synuclein preformed fibril-induced human SH-SY5Y cells assessed as increase in PHB2/LC3 interaction at 1 uM treated for 24 hrs by Co-immunoprecipitation (Co-IP) assay; assay type: cell-based; conditions: filed as agonist
SH-SY5Y [3] = assay: Agonist activity at Nur77-c-Abl-PHB2 pathway in alpha-synuclein preformed fibril-induced human SH-SY5Y cells assessed as increase in ratio of LC3-II/LC3I at 1 uM treated for 24 hrs by Western blot analysis; assay type: cell-based; conditions: filed as agonist
Mus musculus [4] = species: Mus musculus; assay: Neuroprotection activity in alpha-synuclein preformed fibril-induced C57BL/6J mouse PD model assessed as increase in LC3 level in brain at 1 uM treated after 3 month PPF challenge measured after 14 days by Western blot analysis; assay type: functional, organism-based; conditions: time 14.0 day
Mus musculus [5] = species: Mus musculus; assay: Neuroprotection activity in alpha-synuclein preformed fibril-induced C57BL/6J mouse PD model assessed as decrease in pS129-alpha-synuclein in SNpc TH positive neurons in brain at 1 uM treated after 3 month PPF challenge measured after 14 days by Western blot analysis; assay type: functional, organism-based; conditions: time 14.0 day
Mus musculus [6] = species: Mus musculus; assay: Neuroprotection activity in alpha-synuclein preformed fibril-induced C57BL/6J mouse PD model assessed as rescue of DA neurons in brain by measuring TH positive neurons at 1 uM treated after 3 month PPF challenge measured after 14 days by immunohistochemistry; assay type: functional, organism-based; conditions: time 14.0 day
Mus musculus [7] = species: Mus musculus; assay: Neuroprotection activity in alpha-synuclein preformed fibril-induced C57BL/6J mouse PD model assessed as decrease in phosphorylated […] level in brain at 1 uM treated after 3 month PPF challenge measured after 14 days by Western blot analysis; assay type: functional, organism-based; conditions: time 14.0 day
SH-SY5Y [8] = assay: Agonist activity at Nur77-c-Abl-PHB2 pathway in alpha-synuclein preformed fibril-induced human SH-SY5Y cells assessed as translocation of Nur77 into mitochondria at 1 uM treated for 24 hrs by Western blot analysis; conditions: filed as agonist
SH-SY5Y [9] = assay: Agonist activity at Nur77-c-Abl-PHB2 pathway in alpha-synuclein preformed fibril-induced human SH-SY5Y cells assessed as reduction in PHB2 phosphorylation at 1 uM treated for 24 hrs by Western blot analysis; assay type: cell-based; conditions: filed as agonist
SH-SY5Y [10] = assay: Agonist activity at Nur77-c-Abl-PHB2 pathway in alpha-synuclein preformed fibril-induced human SH-SY5Y cells assessed as decrease in p62 expression at 1 uM treated for 24 hrs by Western blot analysis; assay type: cell-based; conditions: filed as agonist
SH-SY5Y [11] = assay: Agonist activity at Nur77-c-Abl-PHB2 pathway in alpha-synuclein preformed fibril-induced human SH-SY5Y cells assessed as interaction with c-Abl at 1 uM treated for 24 hrs by Co-immunoprecipitation (Co-IP) assay; assay type: cell-based; conditions: filed as agonist
Mus musculus [12] = species: Mus musculus; assay: Neuroprotection activity in alpha-synuclein preformed fibril-induced C57BL/6J mouse PD model assessed as decrease in p62 expression in brain at 1 uM treated after 3 month PPF challenge measured after 14 days by Western blot analysis; assay type: functional, organism-based; conditions: time 14.0 day
Mus musculus [13] = species: Mus musculus; assay: Neuroprotection activity in alpha-synuclein preformed fibril-induced C57BL/6J mouse PD model assessed as decrease in phosphorylated c-Abl level in brain at 1 uM treated after 3 month PPF challenge measured after 14 days by Western blot analysis; assay type: functional, organism-based; conditions: time 14.0 day
SH-SY5Y [14] = assay: Agonist activity at Nur77-c-Abl-PHB2 pathway in alpha-synuclein preformed fibril-induced human SH-SY5Y cells assessed as decrease in c-Abl phosphorylation at 1 uM treated for 24 hrs by Western blot analysis; assay type: cell-based; conditions: filed as agonist

Measured: Activity

CCCCCCCC(=O)c1c(O)cc(O)cc1CC(=O)OCC
active: SH-SY5Y [1] | SH-SY5Y [2] | SH-SY5Y [3] | Mus musculus [4] | Mus musculus [5] | Mus musculus [6] | Mus musculus [7] | SH-SY5Y [8] | SH-SY5Y [9] | SH-SY5Y [10] | SH-SY5Y [11] | Mus musculus [12] | Mus musculus [13] | SH-SY5Y [14]
